Molecular target: T1, EgLCY (Euglena gracilis, UniProt A0A7I8I611)
T1 construct: gene lcy; full-length open reading frame in pETDuet-1 (pET-EgLCY, NcoI In-Fusion), expressed in lycopene-accumulating E. coli BL21(DE3) carrying pACCRT-EIB
T1 sequence (A0A7I8I611 1-652): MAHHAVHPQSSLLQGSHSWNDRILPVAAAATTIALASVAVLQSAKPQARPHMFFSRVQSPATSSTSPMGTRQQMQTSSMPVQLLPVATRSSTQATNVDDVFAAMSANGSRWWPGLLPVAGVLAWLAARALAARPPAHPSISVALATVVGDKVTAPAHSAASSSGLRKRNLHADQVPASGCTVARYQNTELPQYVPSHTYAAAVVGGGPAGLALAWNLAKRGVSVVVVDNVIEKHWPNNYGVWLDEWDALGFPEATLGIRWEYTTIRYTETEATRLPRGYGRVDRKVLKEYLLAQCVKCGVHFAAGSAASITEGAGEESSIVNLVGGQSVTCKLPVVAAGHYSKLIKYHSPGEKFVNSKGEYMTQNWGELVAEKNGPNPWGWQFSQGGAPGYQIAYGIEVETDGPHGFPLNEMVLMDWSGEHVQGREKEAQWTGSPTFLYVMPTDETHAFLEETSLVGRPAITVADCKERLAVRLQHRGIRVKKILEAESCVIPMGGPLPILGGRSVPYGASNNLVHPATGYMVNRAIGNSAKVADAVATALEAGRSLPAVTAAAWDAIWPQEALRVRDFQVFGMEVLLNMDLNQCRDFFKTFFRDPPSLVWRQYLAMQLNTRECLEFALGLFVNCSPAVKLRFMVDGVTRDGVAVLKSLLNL
Assay: in vivo conversion in lycopene-accumulating E. coli, HPLC of carotenoid extracts
Type: cell-based
Conditions: co-expression with Pantoea ananatis crtE, crtB, crtI; 48 h at 21°C after IPTG

SMILES	in vivo conversion in lycopene-accumulating E. coli, HPLC of carotenoid extracts
CC(C)=CCC/C(C)=C/C=C/C(C)=C/C=C/C(C)=C/C=C/C=C(C)/C=C/C=C(C)/C=C/C=C(\C)CCC=C(C)C [lycopene]	This indicates that EgLCY is a lycopene β-cyclase that converts lycopene to β-carotene.
CC1=C(/C=C/C(C)=C/C=C/C(C)=C/C=C/C=C(C)/C=C/C=C(C)/C=C/C2=C(C)CCCC2(C)C)C(C)(C)CCC1 [β-carotene]	accumulated β-carotene as the main carotenoid when the EgLCY gene was co-expressed

Source: PMC8678482, “Suppression of the Lycopene Cyclase Gene Causes Downregulation of Ascorbate Peroxidase Activity and Decreased Glutathione Pool Size, Leading to H2O2 Accumulation in Euglena gracilis” (Frontiers in Plant Science, 2021)
